Experimental findings from patent US7927624B2, “Hydrophilic/lipophilic polymeric matrix dosage formulation” (Jagotec AG, priority 2000, dated 2011) are described below.

The nature of the series: physchem. To be noted: water.

Values after ≈ are worked out from the molar mass of the structure shown.

As a reminder, the solubility is how much of the substance goes into solution per volume. `CCCN(CCC)CCc1cccc2c1CC(=O)N2` [ropinirole, Ropinirole] registered a solubility of 133 mg/mL (≈ 511 mM).
